Source: the NIST ThermoML archive (doi:10.1016/j.jct.2007.05.005)
“And” between values parts separate entries of the source, which are not always exact repeats. Identical values can stand only once. Numbers after ± are expanded uncertainties.

Key:
[1] = 101.3 kPa, Liquid; for speed of sound: Sing-around technique in a fixed-path interferometer
[2] = xn = mol fraction of the nth substance listed; details: 101.3 kPa, Liquid, x2 = 0; for speed of sound: Sing-around technique in a fixed-path interferometer

c1ccccc1 [benzene]
[1]
Details | mass density [kg/m3] | speed of sound [m/s]
288.15 K | 884.183 ± 0.65 | 1345.5 ± 2.2
298.15 K | 873.52 ± 0.68 | 1298.3 ± 2.2
323.15 K | 846.641 ± 0.77 | 1184.6 ± 2.2

CCO [ethanol] + CCOC(C)(C)C
[2]
Details | mass density [kg/m3] | speed of sound [m/s]
288.15 K | 793.644 ± 0.93 | 1177.3 ± 2.2
298.15 K | 785.082 ± 0.95 | 1142.4 ± 2.2
323.15 K | 763.177 ± 1 | 1059.3 ± 2.1

CC(C)CC(C)(C)C [2,2,4-trimethylpentane] + CCOC(C)(C)C
[2]
Details | mass density [kg/m3] | speed of sound [m/s]
288.15 K | 695.948 ± 1.2 | 1124.3 ± 2.2
298.15 K | 687.749 ± 1.2 | 1082.2 ± 2.2
323.15 K | 666.832 ± 1.3 | 979.25 ± 2.2

CC(C)(C)O [2-methylpropan-2-ol] + CCOC(C)(C)C
[2]
Details | mass density [kg/m3] | speed of sound [m/s]
303.15 K | 775.028 ± 0.98 | 1098.2 ± 2.2
313.15 K | 764.554 ± 1 | 1055.4 ± 2.2
323.15 K | 753.679 ± 1 | 1013 ± 2.2

CCO [ethanol]
[1]
Details | mass density [kg/m3] | speed of sound [m/s]
288.15 K | 793.644 ± 0.93 | 1177.3 ± 2.2
298.15 K | 785.082 ± 0.95 | 1142.4 ± 2.2
323.15 K | 763.177 ± 1 | 1059.3 ± 2.1

CCc1ccccc1 [ethylbenzene]
[1]
Details | mass density [kg/m3] | speed of sound [m/s]
288.15 K | 870.736 ± 0.69 | 1359.1 ± 2.2
298.15 K | 862.068 ± 0.72 | 1316.2 ± 2.2
323.15 K | 840.054 ± 0.78 | 1213.6 ± 2.2

CC(C)(C)O [2-methylpropan-2-ol]
[1]
Details | mass density [kg/m3] | speed of sound [m/s]
303.15 K | 775.028 ± 0.98 | 1098.2 ± 2.2
313.15 K | 764.554 ± 1 | 1055.4 ± 2.2
323.15 K | 753.679 ± 1 | 1013 ± 2.2

Cc1ccccc1 [toluene] + CCOC(C)(C)C
[2]
Details | mass density [kg/m3] | speed of sound [m/s]
288.15 K | 871.457 ± 0.69 | 1347.5 ± 2.2
298.15 K | 862.173 ± 0.72 | 1303.4 ± 2.2
323.15 K | 838.706 ± 0.79 | 1196.6 ± 2.2

CCc1ccccc1 [ethylbenzene] + CCOC(C)(C)C
[2]
Details | mass density [kg/m3] | speed of sound [m/s]
288.15 K | 870.736 ± 0.69 | 1359.1 ± 2.2
298.15 K | 862.068 ± 0.72 | 1316.2 ± 2.2
323.15 K | 840.054 ± 0.78 | 1213.6 ± 2.2

CCOC(C)(C)C [2-ethoxy-2-methylpropane]
[1]
Details | mass density | speed of sound
288.15 K | 745.656 ± 1.1 kg/m3 and 744.955 ± 1.1 kg/m3 | 1078.9 ± 2.2 m/s and 1076.4 ± 2.2 m/s
298.15 K | 735.357 ± 1.1 kg/m3 and 734.806 ± 1.1 kg/m3 | 1033.2 ± 2.2 m/s and 1031 ± 2.2 m/s
303.15 K | 730.186 ± 1.1 kg/m3 | 1010.2 ± 2.2 m/s
313.15 K | 719.687 ± 1.2 kg/m3 | 965.87 ± 2.2 m/s
323.15 K | 709.007 ± 1.2 kg/m3 and 708.642 ± 1.2 kg/m3 and 708.996 ± 1.2 kg/m3 | 922.48 ± 2.2 m/s and 920.73 ± 2.2 m/s and 922.08 ± 2.2 m/s

c1ccccc1 [benzene] + CCOC(C)(C)C
[2]
Details | mass density [kg/m3] | speed of sound [m/s]
288.15 K | 884.183 ± 0.65 | 1345.5 ± 2.2
298.15 K | 873.52 ± 0.68 | 1298.3 ± 2.2
323.15 K | 846.641 ± 0.77 | 1184.6 ± 2.2

Cc1ccccc1 [toluene]
[1]
Details | mass density [kg/m3] | speed of sound [m/s]
288.15 K | 871.457 ± 0.69 | 1347.5 ± 2.2
298.15 K | 862.173 ± 0.72 | 1303.4 ± 2.2
323.15 K | 838.706 ± 0.79 | 1196.6 ± 2.2

CC(C)CC(C)(C)C [2,2,4-trimethylpentane]
[1]
Details | mass density [kg/m3] | speed of sound [m/s]
288.15 K | 695.948 ± 1.2 | 1124.3 ± 2.2
298.15 K | 687.749 ± 1.2 | 1082.2 ± 2.2
323.15 K | 666.832 ± 1.3 | 979.25 ± 2.2
